*1 amine or outer side, *2 acyl side, *3 side chain or, on linkers, in order; H or OH if unused. Where a SMILES comes first, the peptide text is derived from it. Side-chain parts run from the residue outwards. [ ]: non-standard residue; d: D form. The star is where a group is joined. ξ: configuration not given here. Oic(3aξ,7aξ) = O=C(O)[C@@H]1CC2CCCCC2N1; X1 = O=C([C@H](CCCS)N[*:1])[*:2]; hArg = N=C(N)NCCCC[C@H](N)C(=O)O; hCys = N[C@@H](CCS)C(=O)O; X2 = N[C@@H](CCCS)C(=O)*; Dab = NCC[C@H](N)C(=O)O; Dap = NC[C@H](N)C(=O)O; X3 = CSC[C@H](N)C(=O)*; Mpa = O=C(O)CCS
Molecular target: VEGA-NRP1 (Homo sapiens, UniProt O14786)
Assay: Inhibition of human biotinylated-VEGFA165 binding to recombinant human NRP-1 measured after 2 hrs by chemiluminescent based ELISA
Type: protein assay
Details: read-out: IC50

Chain of VEGA-NRP1 (P15692 whole entry): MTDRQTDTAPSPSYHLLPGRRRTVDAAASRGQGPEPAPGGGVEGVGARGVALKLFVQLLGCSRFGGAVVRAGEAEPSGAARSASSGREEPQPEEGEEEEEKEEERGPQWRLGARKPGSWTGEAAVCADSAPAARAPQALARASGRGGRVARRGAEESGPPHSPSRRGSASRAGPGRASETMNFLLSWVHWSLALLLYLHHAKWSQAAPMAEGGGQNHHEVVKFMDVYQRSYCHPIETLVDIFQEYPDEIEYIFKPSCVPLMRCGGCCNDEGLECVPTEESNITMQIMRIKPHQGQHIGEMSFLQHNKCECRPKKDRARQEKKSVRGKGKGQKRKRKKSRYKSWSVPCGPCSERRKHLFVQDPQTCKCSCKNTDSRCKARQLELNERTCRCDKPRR
Chain of VEGA-NRP1 (O14786 whole entry): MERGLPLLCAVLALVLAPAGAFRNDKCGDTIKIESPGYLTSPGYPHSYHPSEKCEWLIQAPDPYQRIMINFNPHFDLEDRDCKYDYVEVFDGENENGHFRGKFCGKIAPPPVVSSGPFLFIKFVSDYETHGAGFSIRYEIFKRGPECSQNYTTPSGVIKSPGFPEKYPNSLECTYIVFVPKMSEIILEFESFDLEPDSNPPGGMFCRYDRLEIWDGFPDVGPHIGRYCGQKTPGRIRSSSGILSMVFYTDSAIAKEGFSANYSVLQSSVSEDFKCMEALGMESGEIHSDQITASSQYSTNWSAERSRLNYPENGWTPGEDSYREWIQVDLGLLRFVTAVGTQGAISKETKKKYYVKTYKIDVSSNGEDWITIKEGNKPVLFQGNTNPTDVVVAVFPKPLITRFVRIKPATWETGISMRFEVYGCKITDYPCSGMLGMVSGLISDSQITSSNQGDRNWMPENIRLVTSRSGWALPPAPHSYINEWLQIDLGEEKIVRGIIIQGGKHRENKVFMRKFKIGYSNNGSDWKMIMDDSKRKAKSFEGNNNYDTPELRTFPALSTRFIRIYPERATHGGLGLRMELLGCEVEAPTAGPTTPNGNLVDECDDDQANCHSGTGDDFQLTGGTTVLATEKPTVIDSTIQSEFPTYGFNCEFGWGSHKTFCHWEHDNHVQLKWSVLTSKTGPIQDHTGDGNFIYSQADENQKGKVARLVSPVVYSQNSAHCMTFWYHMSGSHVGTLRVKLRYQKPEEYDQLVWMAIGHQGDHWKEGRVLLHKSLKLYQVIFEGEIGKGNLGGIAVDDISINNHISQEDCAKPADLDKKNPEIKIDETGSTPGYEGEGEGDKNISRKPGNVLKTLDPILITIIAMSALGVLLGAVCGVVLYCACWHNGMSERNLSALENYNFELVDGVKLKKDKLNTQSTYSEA

Compound	IC50 [nM]
CSC[C@H](N)C(=O)N[C@@H](CCCCNC(=O)[C@@H](N)CCCCNC(=N)N)C(=O)N[C@@H](CCN)C(=O)N1C2CCCCC2C[C@H]1C(=O)N[C@@H](CCCNC(=N)N)C(=O)O (stereo partly drawn) (H-C(Me)K(hArg)[Dab][Oic(3aξ,7aξ)]R-OH)	2480
N=C(N)NCCCC[C@H](N)C(=O)NCCCC[C@H](NC(=O)[C@@H](N)CO)C(=O)N[C@@H](CCN)C(=O)N1C2CCCCC2C[C@H]1C(=O)N[C@@H](CCCNC(=N)N)C(=O)O (stereo partly drawn) (HELM PEPTIDE1{S.K.[Dab].[O=C([C@@H]1CC2CCCCC2N1[*:1])[*:2]].R}|PEPTIDE2{[N=C(N)NCCCC[C@H](N)C(=O)[*:2]]}$PEPTIDE1,PEPTIDE2,2:R3-1:R2$$$V2.0)	1540
CSC[C@H](N)C(=O)N[C@@H](CCCCNC(=N)N)C(=O)NCCCC[C@H](N)C(=O)N[C@@H](CCN)C(=O)N1C2CCCCC2C[C@H]1C(=O)N[C@@H](CCCNC(=N)N)C(=O)O (stereo partly drawn) (H-K([hArg-X3])[Dab][Oic(3aξ,7aξ)]R-OH)	2820
N=C(N)NCCCC[C@H](N)C(=O)NCCCC[C@H](NC(=O)CCS)C(=O)N[C@@H](CCN)C(=O)N1C2CCCCC2C[C@H]1C(=O)N[C@@H](CCCNC(=N)N)C(=O)O (stereo partly drawn) ([Mpa]K(hArg)[Dab][Oic(3aξ,7aξ)]R-OH)	1130
N=C(N)NCCCC[C@H](NC(=O)[C@@H](N)CN)C(=O)NCCCC[C@H](N)C(=O)N[C@@H](CCN)C(=O)N1C2CCCCC2C[C@H]1C(=O)N[C@@H](CCCNC(=N)N)C(=O)O (stereo partly drawn) (H-K([hArg-Dap])[Dab][Oic(3aξ,7aξ)]R-OH)	330
CC[C@H](N)C(=O)N[C@@H](CCCCNC(=N)N)C(=O)NCCCC[C@H](N)C(=O)N[C@@H](CCN)C(=O)N1C2CCCCC2C[C@H]1C(=O)N[C@@H](CCCNC(=N)N)C(=O)O (stereo partly drawn) (HELM PEPTIDE1{K.[Dab].[O=C([C@@H]1CC2CCCCC2N1[*:1])[*:2]].R}|PEPTIDE2{[Abu].[N=C(N)NCCCC[C@H](N[*:1])C(=O)[*:2]]}$PEPTIDE1,PEPTIDE2,1:R3-2:R2$$$V2.0)	2480
N=C(N)NCCCC[C@H](N)C(=O)NCCCC[C@H](NC(=O)[C@@H](N)CN)C(=O)N[C@@H](CCN)C(=O)N1C2CCCCC2C[C@H]1C(=O)N[C@@H](CCCNC(=N)N)C(=O)O (stereo partly drawn) (H-[Dap]K(hArg)[Dab][Oic(3aξ,7aξ)]R-OH)	440
N=C(N)NCCCC[C@H](NC(=O)CCS)C(=O)NCCCC[C@H](N)C(=O)N[C@@H](CCN)C(=O)N1C2CCCCC2C[C@H]1C(=O)N[C@@H](CCCNC(=N)N)C(=O)O (stereo partly drawn) (H-K([hArg-Mpa])[Dab][Oic(3aξ,7aξ)]R-OH)	2170

More lines, now with the values ahead:

IC50 [nM]	Compound
1330	N=C(N)NCCCC[C@H](NC(=O)[C@@H](N)CCCS)C(=O)NCCCC[C@H](N)C(=O)N[C@@H](CCN)C(=O)N1C2CCCCC2C[C@H]1C(=O)N[C@@H](CCCNC(=N)N)C(=O)O (stereo partly drawn) (H-K([hArg-X2])[Dab][Oic(3aξ,7aξ)]R-OH)
810	N=C(N)NCCCC[C@H](NC(=O)[C@@H](N)CO)C(=O)NCCCC[C@H](N)C(=O)N[C@@H](CCN)C(=O)N1C2CCCCC2C[C@H]1C(=O)N[C@@H](CCCNC(=N)N)C(=O)O (stereo partly drawn) (HELM PEPTIDE1{K.[Dab].[O=C([C@@H]1CC2CCCCC2N1[*:1])[*:2]].R}|PEPTIDE2{S.[N=C(N)NCCCC[C@H](N[*:1])C(=O)[*:2]]}$PEPTIDE1,PEPTIDE2,1:R3-2:R2$$$V2.0)
700	N=C(N)NCCCC[C@H](N)C(=O)NCCCC[C@H](NC(=O)[C@@H](N)CCS)C(=O)N[C@@H](CCN)C(=O)N1C2CCCCC2C[C@H]1C(=O)N[C@@H](CCCNC(=N)N)C(=O)O (stereo partly drawn) (H-[hCys]K(hArg)[Dab][Oic(3aξ,7aξ)]R-OH)
890	N=C(N)NCCCC[C@H](N)C(=O)NCCCC[C@H](NC(=O)[C@@H](N)CCCS)C(=O)N[C@@H](CCN)C(=O)N1C2CCCCC2C[C@H]1C(=O)N[C@@H](CCCNC(=N)N)C(=O)O (stereo partly drawn) (H-[X1]K(hArg)[Dab][Oic(3aξ,7aξ)]R-OH)
630	N=C(N)NCCCC[C@H](NC(=O)[C@@H](N)CCS)C(=O)NCCCC[C@H](N)C(=O)N[C@@H](CCN)C(=O)N1C2CCCCC2C[C@H]1C(=O)N[C@@H](CCCNC(=N)N)C(=O)O (stereo partly drawn) (H-K([hArg-hCys])[Dab][Oic(3aξ,7aξ)]R-OH)
